Test system: K24384-001-R-PDC complex spheroids, viability
Assay: Anticancer human tumor K24384-001-R-PDC patient-derived pancreatic adenocarcinoma cell line growth inhibition [GQUAD]
Details: for IC50: curve of first compound; for viability, T/C: stronger effect = lower value; active = viability on the fitted dose curve at most 10% of control; inactive = the rest
Method in brief: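 Viability of tumor cells grown as complex spheroids with endothelial and stromal cells, exposed to drug combinations. Top concentration at or near clinical Cmax (else 10 microM), diluted in half-log increments.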

[1] = second compound 0.0316 µM, first compound 0.0316 µM
[2] = second compound 0.0316 µM, first compound 0.1 µM
[3] = second compound 0.0316 µM, first compound 0.316 µM
[4] = second compound 0.0316 µM, first compound 1 µM
[5] = second compound 0.0316 µM, first compound 3.16 µM
[6] = second compound 0.0316 µM, first compound 10 µM
[7] = second compound 0.1 µM, first compound 0.0316 µM
[8] = second compound 0.1 µM, first compound 0.1 µM
[9] = second compound 0.1 µM, first compound 0.316 µM
[10] = second compound 0.1 µM, first compound 1 µM
[11] = second compound 0.1 µM, first compound 3.16 µM
[12] = second compound 0.1 µM, first compound 10 µM
[13] = second compound 0.316 µM, first compound 0.0316 µM
[14] = second compound 0.316 µM, first compound 0.1 µM
[15] = second compound 0.316 µM, first compound 0.316 µM
[16] = second compound 0.316 µM, first compound 1 µM
[17] = second compound 0.316 µM, first compound 3.16 µM
[18] = second compound 0.316 µM, first compound 10 µM
[19] = second compound 1 µM, first compound 0.0316 µM
[20] = second compound 1 µM, first compound 0.1 µM
[21] = second compound 1 µM, first compound 0.316 µM
[22] = second compound 1 µM, first compound 1 µM
[23] = second compound 1 µM, first compound 3.16 µM
[24] = second compound 1 µM, first compound 10 µM
[25] = second compound 3.16 µM, first compound 0.0316 µM
[26] = second compound 3.16 µM, first compound 0.1 µM
[27] = second compound 3.16 µM, first compound 0.316 µM
[28] = second compound 3.16 µM, first compound 1 µM
[29] = second compound 3.16 µM, first compound 3.16 µM
[30] = second compound 3.16 µM, first compound 10 µM
[31] = second compound 10 µM, first compound 0.0316 µM
[32] = second compound 10 µM, first compound 0.1 µM
[33] = second compound 10 µM, first compound 0.316 µM
[34] = second compound 10 µM, first compound 1 µM
[35] = second compound 10 µM, first compound 3.16 µM
[36] = second compound 10 µM, first compound 10 µM
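Note: spheroids exposed to compounds for seven days.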

O=C(NO)c1cnc(N2CCN(S(=O)(=O)c3ccc4ccccc4c3)CC2)nc1 + Cc1[nH]c2ccc(F)cc2c1-c1nc2c3cccnc3c3ncccc3c2[nH]1
active: viability, T/C [5] 0.14% | viability, T/C [6] 0.17% | viability, T/C [11] 0.16% | viability, T/C [12] 0.15% | viability, T/C [17] 0.1% | viability, T/C [18] 0.12% | viability, T/C [23] 0.16% | viability, T/C [24] 0.12% | viability, T/C [29] 0.18% | viability, T/C [30] 0.14% | viability, T/C [35] 0.22% | viability, T/C [36] 0.17%
871 nM: IC50 (second compound 3.16 µM)
671 nM: IC50 (second compound 0.1 µM)
858 nM: IC50 (second compound 10 µM)
618 nM: IC50 (second compound 0.0316 µM)
inactive: viability, T/C [1] 109% | viability, T/C [2] 105% | viability, T/C [3] 87.7% | viability, T/C [4] 23.1% | viability, T/C [7] 96.6% | viability, T/C [8] 103% | viability, T/C [9] 79.2% | viability, T/C [10] 35% | viability, T/C [13] 102% | viability, T/C [14] 94.5% | viability, T/C [15] 88.4% | viability, T/C [16] 40.5% | viability, T/C [19] 105% | viability, T/C [20] 107% | viability, T/C [21] 101% | viability, T/C [22] 52.3% | viability, T/C [25] 75.6% | viability, T/C [26] 110% | viability, T/C [27] 88.7% | viability, T/C [28] 44.7% | viability, T/C [31] 71.5% | viability, T/C [32] 95.8% | viability, T/C [33] 82.7% | viability, T/C [34] 44.9%
1050 nM: IC50 (second compound 1 µM)
787 nM: IC50 (second compound 0.316 µM)

CC(=O)O[C@H]1C(=O)[C@@]2(C)[C@H]([C@H](OC(=O)c3ccccc3)[C@]3(O)C[C@H](OC(=O)[C@H](O)[C@@H](NC(=O)c4ccccc4)c4ccccc4)C(C)=C1C3(C)C)[C@]1(OC(C)=O)CO[C@@H]1C[C@@H]2O + CN(C)c1ccc(Nc2c3ccc(NC(=O)CCN4CCCC4)cc3nc3cc(NC(=O)CCN4CCCC4)ccc23)cc1
inactive: viability, T/C [1] 32.2% | viability, T/C [2] 22.9% | viability, T/C [3] 20.5% | viability, T/C [4] 20.1% | viability, T/C [5] 22.4% | viability, T/C [6] 25.3% | viability, T/C [7] 34.5% | viability, T/C [8] 22.1% | viability, T/C [9] 18.5% | viability, T/C [10] 21.3% | viability, T/C [11] 20.7% | viability, T/C [12] 25.7% | viability, T/C [13] 37.3% | viability, T/C [14] 22.4% | viability, T/C [15] 17.6% | viability, T/C [16] 19.8% | viability, T/C [17] 19.5% | viability, T/C [18] 25.7% | viability, T/C [19] 33.4% | viability, T/C [20] 23.7% | viability, T/C [21] 19.3% | viability, T/C [22] 19.9% | viability, T/C [23] 26.1% | viability, T/C [24] 27.5% | viability, T/C [25] 29.4% | viability, T/C [26] 20.7% | viability, T/C [27] 24.4% | viability, T/C [28] 17.4% | viability, T/C [29] 23.2% | viability, T/C [30] 30.1% | viability, T/C [31] 38.2% | viability, T/C [32] 26.4% | viability, T/C [33] 24.9% | viability, T/C [34] 24.5% | viability, T/C [35] 33.9% | viability, T/C [36] 40.9%
< 31.6 nM: IC50 (second compound 0.0316 µM) | IC50 (second compound 0.1 µM) | IC50 (second compound 0.316 µM) | IC50 (second compound 1 µM) | IC50 (second compound 3.16 µM) | IC50 (second compound 10 µM)

CC(C)n1c(=O)n(C)c2cnc3cc(F)c(-c4ccc(OCCCN5CCCCC5)nc4)cc3c21 + CN(C)c1ccc(Nc2c3ccc(NC(=O)CCN4CCCC4)cc3nc3cc(NC(=O)CCN4CCCC4)ccc23)cc1
622 nM: IC50 (second compound 10 µM)
> 10000 nM: IC50 (second compound 0.0316 µM) | IC50 (second compound 0.1 µM) | IC50 (second compound 0.316 µM) | IC50 (second compound 1 µM)
inactive: viability, T/C [1] 97.1% | viability, T/C [2] 82.6% | viability, T/C [3] 109% | viability, T/C [4] 116% | viability, T/C [5] 119% | viability, T/C [6] 84.1% | viability, T/C [7] 85.7% | viability, T/C [8] 101% | viability, T/C [9] 121% | viability, T/C [10] 99.4% | viability, T/C [11] 122% | viability, T/C [12] 79% | viability, T/C [13] 80.5% | viability, T/C [14] 97.2% | viability, T/C [15] 109% | viability, T/C [16] 110% | viability, T/C [17] 129% | viability, T/C [18] 86.9% | viability, T/C [19] 77.9% | viability, T/C [20] 88.7% | viability, T/C [21] 92.8% | viability, T/C [22] 118% | viability, T/C [23] 109% | viability, T/C [24] 67.3% | viability, T/C [25] 90.2% | viability, T/C [26] 89.2% | viability, T/C [27] 105% | viability, T/C [28] 95.7% | viability, T/C [29] 78.2% | viability, T/C [30] 48.7% | viability, T/C [31] 69.8% | viability, T/C [32] 70.5% | viability, T/C [33] 55.9% | viability, T/C [34] 44.7% | viability, T/C [35] 31% | viability, T/C [36] 21.5%
9510 nM: IC50 (second compound 3.16 µM)
